Tested on: MDCK(MDR) monolayers
Assay: in vitro
Details: MDCK-MDR1
Excerpt: (§1) The present invention is directed to the use of a new in vitro model for evaluating the ability of a drug molecule to penetrate the cornea. The model involves the use of MDCK cell permeability values to predict the ability of drug molecules to penetrate the cornea. The MDCK permeability values of drug molecules can be determined by means of known methods, such as the methods described in the following scientific articles: • 1. Horio, M, Pastan, I, Gottesman, M M, and Handler, J S. Transepithelial transport of vinblastine by kidney-derived cell lines. Application of a new kinetic model to estimate in situ Km of the pump. […] Pan, B F, Dutt, A, and Nelson, J A. Enhanced transepithelial flux of cimetidine by Madin-Darby canine kidney cells overexpressing human P-glycoprotein. […] The entire contents of the above-cited references relating to methods for determining MDCK permeation values for drug molecules are hereby incorporated in the present specification by reference. […] Various commercial scientific laboratories may be utilized to obtain MDCK permeation values (e.g., Absorption Systems, Exton, Pa., USA).
(§2) In vitro MDCK cell permeability. Permeability and transport studies were conducted and the data were analyzed at Absorption Systems, Exton, Pa., using methods previously described.^12,13 MDCK(MDR) monolayers were grown to confluence on collagen-coated, microporous, polycarbonate membranes in 12-well Costar Transwell plates. To ensure monolayer integrity, the trans epithelial electrical resistance (TEER) was measured. […] The permeability assay buffer was Hank's Balanced Salt Solution containing 10 mM HEPES and 15 mM glucose at a pH of 7.0-7.2. Permeability through a cell-free (blank) membrane was studied to determine non-specific binding and free diffusion of the test article through the device. […] At each time point, 1 and 2 hours, a 200-μL aliquot was taken from the receiver chamber and replaced with fresh assay buffer. Cells were dosed on the apical side [apical-to-basolateral, absorptive transport, […]] or basolateral side [basolateral-to-apical, secretory transport, (B-A)] and incubated at 37° C. with 5% CO2 and 90% relative humidity. Each determination was performed in duplicate. Lucifer Yellow permeability was measured for each monolayer after the experiment, to ensure that the cell monolayer integrity and viability was not compromised by the test article.
(§3) To determine the transport of compounds in the absence of functional P-gp activity, the above experimental conditions were used but in the presence of the P-gp inhibitor cyclosporin A (CSA).^14 For the studies using CSA, cells were pre-incubated for 30 minutes with the inhibitor (10 μM) and washed; during the permeation determination period CSA (10 μM) was present on both sides of the membrane. The Papp A-B determined in the presence of CSA was taken as an estimate of the permeability attributed to passive diffusion for the compound (Papp PD).

In the case of Lucifer Yellow, the “Post experiment Lucifer Yellow permeability in monolayers” value is reported as 0.24-0.75 ×10^−6 cm/s.

Compared with `O=C1CC2(CCCC2)CC(=O)N1CCCCN1CCN(c2ncccn2)CC1` [Buspirone], `CC(C)(C)NC[C@H](O)COc1nsnc1N1CCOCC1` [Timolol] is lower in “MDCK^2” value: 105625 for the first, 1149.21 for the second.

Compared with `CC(C)NCC(O)COc1ccc(CCOCC2CC2)cc1` (stereo not drawn) [Betaxolol], `CC[C@@H]1C(=O)OC[C@@H]1Cc1cncn1C` [Pilocarpine] is lower in “MDCK^2” value: 40804 for the first, 1354.24 for the second.

Going from `NC(=O)Cc1cccc(C(=O)c2ccccc2)c1N` [Nepafenac] to `O=C1OC2(c3ccc(O)cc3Oc3cc(O)ccc32)c2ccccc21` [Fluorescein], the “MDCK^2” value falls from 32761 to 43.56.

First: Nc1cc(Cl)c(N=C2NCCN2)c(Cl)c1 [Apraclonidine]
Second: C[C@@H]1C[C@H]2[C@@H]3CCC4=CC(=O)C=C[C@]4(C)[C@@]3(F)[C@@H](O)C[C@]2(C)[C@@]1(O)C(=O)CO [Dexamethasone]
The “MDCK^2” value of the first is lower: 14.44 for the first, 1428.84 for the second.

Tested on: P-gp (MDR1)
Assay: in vitro
Details: dog, MDCK-MDR1
Excerpt: as §1, §2, §3

First: O=C1CC2(CCCC2)CC(=O)N1CCCCN1CCN(c2ncccn2)CC1 [Buspirone]
Second: CC(C)(C)NC[C@H](O)COc1nsnc1N1CCOCC1 [Timolol]
The Papp at 10 μM of the first is 9.6-fold higher: 32.5 ×10⁻⁶ cm/s for the first, 3.39 ×10⁻⁶ cm/s for the second.

Compared with `CC(C)NCC(O)COc1ccc(CCOCC2CC2)cc1` (stereo not drawn) [Betaxolol], `CC[C@@H]1C(=O)OC[C@@H]1Cc1cncn1C` [Pilocarpine] is 5.5-fold lower in Papp at 10 μM: 20.2 ×10⁻⁶ cm/s for the first, 3.68 ×10⁻⁶ cm/s for the second.

First: NC(=O)Cc1cccc(C(=O)c2ccccc2)c1N [Nepafenac]
Second: O=C1OC2(c3ccc(O)cc3Oc3cc(O)ccc32)c2ccccc21 [Fluorescein]
The Papp at 10 μM of the first is 27-fold higher: 18.1 ×10⁻⁶ cm/s for the first, 0.66 ×10⁻⁶ cm/s for the second.

For `Nc1cc(Cl)c(N=C2NCCN2)c(Cl)c1` [Apraclonidine], the Papp at 10 μM was 0.38 ×10⁻⁶ cm/s.

Tested on: not listed separately
Assay: Ex vivo corneal penetration (perfusion chamber)
Format: in vitro ADME
Details: rabbit; Table 2; read-out: Ex vivo Rabbit Corneal Permeability, Papp nm/s
Procedure: The intact eyes, along with the lids and conjunctival sacs were then enucleated and immediately stored in about 70 ml of fresh BSS PLUS® Sterile Irrigating Solution (Alcon Laboratories, Inc.) saturated with O2/CO2 (95:5). Within one hour, corneas were mounted in the modified perfusion chamber as described by Schoenwald and Huang (G1). BSS PLUS® solution was used as the receiving and rinsing solution throughout the perfusion experiments. Steady-state conditions were used in order to determine the apparent permeability coefficients. After mounting the corneas in the chamber, 7.5 mls of BSS PLUS® solution was added to the receiving chamber (endothelial side of the cornea). Then, 7 mls of 0.1 mMole solutions of each fluoroquinolone prepared in BSS PLUS® solution was added into the donor chamber (epithelial side of the cornea). Throughout the experiment, both solutions were bubbled continuously with O2/CO2 (95:5) at the rate of about one bubble per second. This provides mixing of the solution in each chamber, oxygenation of the cornea, and pH control. Samples (0.15 ml) were withdrawn from the receiving chamber at 30 min intervals over a period of five hours. BSS PLUS® solution (0.15 ml) was added back to the receiving chamber after each withdrawal to compensate for loss of volume.
At the end of each permeability experiment, The final volume of the receiving chambers was noted, and the viability of the corneas was assessed by determining their hydration level: The corneas were trimmed of excess scleral tissue and conjunctiva, blotted, weighed, dried overnight at room temperature under vacuum over phosphorus pentoxide, and then re-weighed.
C is the steady state measured concentration of […] in the donor solution in units of μg/ml or ppm; and 60 is the conversion of minutes to seconds.

Going from `O=C1CC2(CCCC2)CC(=O)N1CCCCN1CCN(c2ncccn2)CC1` [Buspirone] to `CC(C)(C)NC[C@H](O)COc1nsnc1N1CCOCC1` [Timolol], the Papp at 5 h, 0.1 mMole falls from 66.5 ×10⁻⁶ cm/s to 24 ×10⁻⁶ cm/s (2.8-fold).

Compared with `CC(C)NCC(O)COc1ccc(CCOCC2CC2)cc1` (stereo not drawn) [Betaxolol], `CC[C@@H]1C(=O)OC[C@@H]1Cc1cncn1C` [Pilocarpine] is 6.1-fold lower in Papp at 5 h, 0.1 mMole: 60 ×10⁻⁶ cm/s for the first, 9.8 ×10⁻⁶ cm/s for the second.

Compared with `NC(=O)Cc1cccc(C(=O)c2ccccc2)c1N` [Nepafenac], `O=C1OC2(c3ccc(O)cc3Oc3cc(O)ccc32)c2ccccc21` [Fluorescein] is 4.6-fold lower in Papp at 5 h, 0.1 mMole: 74 ×10⁻⁶ cm/s for the first, 16 ×10⁻⁶ cm/s for the second.

`Nc1cc(Cl)c(N=C2NCCN2)c(Cl)c1` [Apraclonidine] gave a Papp at 5 h, 0.1 mMole of 3.8 ×10⁻⁶ cm/s.

Tested on: cornea
Assay: Predicted corneal permeability from MDCK permeability by statistical model
Details: Corneal Permeability=5.41(MDCK Permeability)−0.01(MDCK Permeability)^2; in nm/s
Excerpt: The method of the present invention comprises the following steps: (1) determining the MDCK permeation value for a drug molecule; and (2) entering said value in a suitable linear or quadratic statistical model to calculate a predicted corneal permeability value for said molecule. The statistical model is created by obtaining MDCK permeation values and corneal penetration values for at least two representative drug molecules, plotting those values on a graph and deriving a linear or quadratic statistical model from the graph.

Going from `O=C1CC2(CCCC2)CC(=O)N1CCCCN1CCN(c2ncccn2)CC1` [Buspirone] to `CC(C)(C)NC[C@H](O)COc1nsnc1N1CCOCC1` [Timolol], the “Predicted Corneal Permeability” value falls from 675.82 to 164.91.

First: CC(C)NCC(O)COc1ccc(CCOCC2CC2)cc1 (stereo not drawn) [Betaxolol]
Second: CC[C@@H]1C(=O)OC[C@@H]1Cc1cncn1C [Pilocarpine]
The “Predicted Corneal Permeability” value of the first is higher: 657.76 for the first, 177.99 for the second.

First: NC(=O)Cc1cccc(C(=O)c2ccccc2)c1N [Nepafenac]
Second: O=C1OC2(c3ccc(O)cc3Oc3cc(O)ccc32)c2ccccc21 [Fluorescein]
The “Predicted Corneal Permeability” value of the first is higher: 625.74 for the first, 33.83 for the second.

With `Nc1cc(Cl)c(N=C2NCCN2)c(Cl)c1` [Apraclonidine] the “Predicted Corneal Permeability” value was 19.58.

Source: US7297505B2, “Use of MDCK cell line to predict corneal penetration of drugs” (Alcon, Inc., priority 2004, dated 2007)
